Data reported in patent US4882349A, “Pyrrolacetic amides having antiinflammatory activity” (priority 1982, dated 1989).

What was measured:
[1] = tested on: phenyl-p-quinone-induced writhing (abdominal contractions); test: phenylquinone-induced writhing test (analgesic activity), compound given 30 min before phenyl-p-quinone; type: in vivo, male Wistar rats
Procedure: Male Wistar rats weighing 110±5 g were caged for 10 days at 22±1° C. and given a balanced diet with free access to water. Twenty-four hours before the experiment the animals were randomized into groups of 10 and fasted for 14 hours but with free access to water. Each dose was tested in 3 groups of rats. Thirty minutes following administration either orally or parenterally of the products to be tested and the vehicle alone (0.5% carboxymethyl-cellulose in physiological saline) in the control animals, each rat was given 2 ml of a 5% absolute ethanol aqueous solution containing 0.36% of phenyl-p-quinone (Sigma Chemical Company) in order to provoke writhings. Fifteen minutes after administration of phenyl-p-quinone the number of contractions were counted for 20 minutes. The inhibiting effect of the compounds under examination on the abdominal contractions induced by phenyl-p-quinone was calculated by the following formula: % protection= [formula]
Table V lists the tested compounds, doses, routes of administration and their efficacy expressed as percentage of protection, taking into account that phenyl-p-quinone was administered thirty minutes after the compounds.

[2] = tested on: carrageenin-induced oedema; test: carrageenin-induced oedema test (anti-inflammatory activity); type: in vivo, albino male Wistar rats
Procedure: This effect was evaluated by means of an experimental model reproducing acute inflammation: for this purpose the carrageenin- induced oedema test was employed following the method described by C.
Albino male Wistar rats weighing 140-160 g were caged for 10 days at 22±1° C. and given a balanced diet and water ad libitum. Eighteen hours before the experiment the animals were randomized into groups of ten and fasted but with free access to water. Each dose was tested in three groups of rats. Each compound was given either orally, by gavage, or parenterally--intraperitoneal injection--administering as follows:
controls: 0.5% carboxymethylcellulose suspension in physiological saline, 10 ml/kg
treated: suspension of the compounds to be tested in the same vehicle and at the same volume (10 ml/kg) used for the controls at the doses specified below.
One hour after administration of the compounds and vehicle, in order to provoke the oedema for determining the protective effect of the substances under examination, each rat received, by subcutaneous injection into the plantar surface of the left paw, 0.1 ml of 1% sterile carrageenin suspension.

[3] = tested on: cough provoked by mechanical stimulation of the tracheal bifurcation mucosa; test: antitussive activity, mechanically provoked coughing; type: in vivo, albino Guinea-pigs; settings: 1 h after administration
Procedure: The antitussive effect on albino Guinea-pigs weighing 300 g was evaluated using the method described by Y. Kase (Selected Pharmacological Testing Methods, p.363, Marcel Dekker Inc., New York, 1968). Each dose was tested in a group of animals with a Y cannula inserted into the trachea. In order to provoke coughing, the mucosa of the tracheal bifurcation was mechanically stimulated by insertion of a wild boar's hair through an opening in the cannula, while the other opening was connected to a kymograph to plot the amplitude and/or frequency. The reduction in the number of coughs was evaluated at one hour after administration of the compounds under examination by following the plottings for twenty minutes and comparing the response of the control animals.

[4] = tested on: mucus secreted by the respiratory airway; test: antisecretory activity, respiratory mucus secretion; type: in vivo, albino male New Zealand rabbits; settings: vs control group
Procedure: The experiment was carried out in accordance with the method described by Y. Kase (Folia Pharmacol. Jap. 73: 605, 1977) for the purpose of investigating whether or not the compounds under examination determine changes in the volume of the mucus secreted by the respiratory airway. Groups of four albino male New Zealand rabbits (mean weight: 2.5 kg) were used for testing each dose per single group. The animals were anesthetized with urethane (1.1 g/ks b.w.) via the intraperitoneal route and a Y cannula was inserted into the trachea. In order to stimulate mucous secretion a humidifier was connected to the cannula permitting the animals to spontaneously breathe air with 100% humidity at a constant temperature of 39° C. The secreted mucus was collected through another opening in the cannula and measured at three and six hours after administration of the compounds under examination or of the vehicle alone administered in the order of […] (controls). Calculation of the increase or decrease in mucous secretion was based upon the percentage differences between the groups treated with the compounds under examination and the control group. Table VII gives the percentage differences in mucous secretion, and the tested compounds with relative doses and routes of administration.

COc1ccccc1OC(=O)CNC(=O)Cc1ccc(C(=O)c2ccc(C)cc2)n1C [Compound 1-d, 1-methyl-5-p-toluoylpyrrole-2-acetamidoacetic acid guaiacyl ester]
% Protection ([1]; 5 mg/Kg i.p.): 22.1% | % Protection ([1]; 5 mg/Kg per os): 29.1% | % Protection ([1]; 10 mg/Kg i.p.): 56.0% | % Protection ([1]; 10 mg/Kg per os): 53.4% | % Protection ([1]; 20 mg/Kg i.p.): 87.0% | % Protection ([1]; 20 mg/Kg per os): 80.2% | oedema % inhibition ([2]; 2.5 mg/Kg per os, 2 h): 50.0% | oedema % inhibition ([2]; 2.5 mg/Kg per os, 4 h): 34.6% | oedema % inhibition ([2]; 2.5 mg/Kg per os, 6 h): 23.1% | oedema % inhibition ([2]; 2.5 mg/Kg per os, 24 h): 0.0% | oedema % inhibition ([2]; 2.5 mg/Kg per os, 48 h): 0.0% | oedema % inhibition ([2]; 2.5 mg/Kg per os, 72 h): 0.0% | oedema % inhibition ([2]; 2.5 mg/Kg, Table IV (route not given), 2 h): 52.3% | oedema % inhibition ([2]; 2.5 mg/Kg, Table IV (route not given), 4 h): 37.0% | oedema % inhibition ([2]; 2.5 mg/Kg, Table IV (route not given), 6 h): 26.0% | oedema % inhibition ([2]; 2.5 mg/Kg, Table IV (route not given), 24 h): 14.0% | oedema % inhibition ([2]; 2.5 mg/Kg, Table IV (route not given), 48 h): 0.0% | oedema % inhibition ([2]; 2.5 mg/Kg, Table IV (route not given), 72 h): 0.0% | oedema % inhibition ([2]; 5 mg/Kg per os, 2 h): 51.4% | oedema % inhibition ([2]; 5 mg/Kg per os, 4 h): 38.8% | oedema % inhibition ([2]; 5 mg/Kg per os, 6 h): 24.0% | oedema % inhibition ([2]; 5 mg/Kg per os, 24 h): 10.0% | oedema % inhibition ([2]; 5 mg/Kg per os, 48 h): 10.0% | oedema % inhibition ([2]; 5 mg/Kg per os, 72 h): 6.0% | oedema % inhibition ([2]; 5 mg/Kg, Table IV (route not given), 2 h): 54.0% | oedema % inhibition ([2]; 5 mg/Kg, Table IV (route not given), 4 h): 40.0% | oedema % inhibition ([2]; 5 mg/Kg, Table IV (route not given), 6 h): 24.6% | oedema % inhibition ([2]; 5 mg/Kg, Table IV (route not given), 24 h): 10.1% | oedema % inhibition ([2]; 5 mg/Kg, Table IV (route not given), 48 h): 0.0% | oedema % inhibition ([2]; 5 mg/Kg, Table IV (route not given), 72 h): 0.0% | oedema % inhibition ([2]; 10 mg/Kg per os, 2 h): 61.5% | oedema % inhibition ([2]; 10 mg/Kg per os, 4 h): 41.2% | oedema % inhibition ([2]; 10 mg/Kg per os, 6 h): 34.9% | oedema % inhibition ([2]; 10 mg/Kg per os, 24 h): 12.6% | oedema % inhibition ([2]; 10 mg/Kg per os, 48 h): 14.0% | oedema % inhibition ([2]; 10 mg/Kg per os, 72 h): 9.0% | oedema % inhibition ([2]; 10 mg/Kg, Table IV (route not given), 2 h): 60.0% | oedema % inhibition ([2]; 10 mg/Kg, Table IV (route not given), 4 h): 46.9% | oedema % inhibition ([2]; 10 mg/Kg, Table IV (route not given), 6 h): 36.7% | oedema % inhibition ([2]; 10 mg/Kg, Table IV (route not given), 24 h): 16.5% | oedema % inhibition ([2]; 10 mg/Kg, Table IV (route not given), 48 h): 6.3% | oedema % inhibition ([2]; 10 mg/Kg, Table IV (route not given), 72 h): 0.0% | oedema % inhibition ([2]; 20 mg/Kg per os, 2 h): 62.1% | oedema % inhibition ([2]; 20 mg/Kg per os, 4 h): 48.7% | oedema % inhibition ([2]; 20 mg/Kg per os, 6 h): 32.8% | oedema % inhibition ([2]; 20 mg/Kg per os, 24 h): 26.6% | oedema % inhibition ([2]; 20 mg/Kg per os, 48 h): 25.9% | oedema % inhibition ([2]; 20 mg/Kg per os, 72 h): 3.3% | oedema % inhibition ([2]; 20 mg/Kg, Table IV (route not given), 2 h): 65.0% | oedema % inhibition ([2]; 20 mg/Kg, Table IV (route not given), 4 h): 50.4% | oedema % inhibition ([2]; 20 mg/Kg, Table IV (route not given), 6 h): 48.6% | oedema % inhibition ([2]; 20 mg/Kg, Table IV (route not given), 24 h): 23.5% | oedema % inhibition ([2]; 20 mg/Kg, Table IV (route not given), 48 h): 9.1% | oedema % inhibition ([2]; 20 mg/Kg, Table IV (route not given), 72 h): 8.4% | oedema % inhibition ([2]; 50 mg/Kg per os, 2 h): 66.9% | oedema % inhibition ([2]; 50 mg/Kg per os, 4 h): 66.8% | oedema % inhibition ([2]; 50 mg/Kg per os, 6 h): 57.8% | oedema % inhibition ([2]; 50 mg/Kg per os, 24 h): 30.9% | oedema % inhibition ([2]; 50 mg/Kg per os, 48 h): 36.3% | oedema % inhibition ([2]; 50 mg/Kg per os, 72 h): 38.6% | oedema % inhibition ([2]; 50 mg/Kg, Table IV (route not given), 2 h): 69.7% | oedema % inhibition ([2]; 50 mg/Kg, Table IV (route not given), 4 h): 74.0% | oedema % inhibition ([2]; 50 mg/Kg, Table IV (route not given), 6 h): 67.2% | oedema % inhibition ([2]; 50 mg/Kg, Table IV (route not given), 24 h): 34.5% | oedema % inhibition ([2]; 50 mg/Kg, Table IV (route not given), 48 h): 20.8% | oedema % inhibition ([2]; 50 mg/Kg, Table IV (route not given), 72 h): 15.3% | oedema % inhibition ([2]; 100 mg/Kg per os, 2 h): 68.0% | oedema % inhibition ([2]; 100 mg/Kg per os, 4 h): 74.0% | oedema % inhibition ([2]; 100 mg/Kg per os, 6 h): 67.5% | oedema % inhibition ([2]; 100 mg/Kg per os, 24 h): 40.3% | oedema % inhibition ([2]; 100 mg/Kg per os, 48 h): 38.0% | oedema % inhibition ([2]; 100 mg/Kg per os, 72 h): 33.0% | oedema % inhibition ([2]; 100 mg/Kg, Table IV (route not given), 2 h): 76.5% | oedema % inhibition ([2]; 100 mg/Kg, Table IV (route not given), 4 h): 79.5% | oedema % inhibition ([2]; 100 mg/Kg, Table IV (route not given), 6 h): 73.4% | oedema % inhibition ([2]; 100 mg/Kg, Table IV (route not given), 24 h): 42.4% | oedema % inhibition ([2]; 100 mg/Kg, Table IV (route not given), 48 h): 33.0% | oedema % inhibition ([2]; 100 mg/Kg, Table IV (route not given), 72 h): 31.6% | % inhibition, cough amplitude ([3]; 50 mg/Kg i.p.): 12% | % inhibition, cough frequency ([3]; 50 mg/Kg i.p.): 15% | % inhibition, cough amplitude ([3]; 50 mg/Kg per os): 10% | % inhibition, cough frequency ([3]; 50 mg/Kg per os): 18% | % inhibition, cough amplitude ([3]; 75 mg/Kg i.p.): 20% | % inhibition, cough frequency ([3]; 75 mg/Kg i.p.): 36% | % inhibition, cough amplitude ([3]; 75 mg/Kg per os): 22% | % inhibition, cough frequency ([3]; 75 mg/Kg per os): 29% | % inhibition, cough amplitude ([3]; 100 mg/Kg i.p.): 30% | % inhibition, cough frequency ([3]; 100 mg/Kg i.p.): 45% | % inhibition, cough amplitude ([3]; 100 mg/Kg per os): 30% | % inhibition, cough frequency ([3]; 100 mg/Kg per os): 49% | % difference in mucus secretion ([4]; 50 mg/Kg i.p., 3 h): -5% | % difference in mucus secretion ([4]; 50 mg/Kg i.p., 6 h): -5% | % difference in mucus secretion ([4]; 50 mg/Kg per os, 3 h): 0.0% | % difference in mucus secretion ([4]; 50 mg/Kg per os, 6 h): 0.0% | % difference in mucus secretion ([4]; 75 mg/Kg i.p., 3 h): -18% | % difference in mucus secretion ([4]; 75 mg/Kg i.p., 6 h): -15% | % difference in mucus secretion ([4]; 75 mg/Kg per os, 3 h): -15% | % difference in mucus secretion ([4]; 75 mg/Kg per os, 6 h): -10% | % difference in mucus secretion ([4]; 100 mg/Kg i.p., 3 h): -38% | % difference in mucus secretion ([4]; 100 mg/Kg i.p., 6 h): -30% | % difference in mucus secretion ([4]; 100 mg/Kg per os, 3 h): -32% | % difference in mucus secretion ([4]; 100 mg/Kg per os, 6 h): -27%
